Publication PMC4073510, “Identification of natural antimicrobial agents to treat dengue infection: In vitro analysis of latarcin peptide activity against dengue virus” (BMC Microbiology, 2014)
Read-outs that look alike come from different tables or passages of the source. No end group written: not given here.

Tests used:
[1] = test system: mammalian cells; details: cited from earlier work
[2] = test system: HepG2 cells; assay: Real Time Cell Proliferation Assay (RTCA, xCELLigence); assay type: cell-based, human
Protocol: This assay was performed to test the real time effects of the Ltc 1 peptide on cell viability. Cell proliferation was measured using the xCELLigence Real-Time Cellular Analysis (RTCA) system (Roche, Germany) as described previously. Cell viability and growth were monitored continuously after applying increasing concentrations of the Ltc 1 peptide (0, 12.5, 25, 50, 100, 150, 200, 250 μM). Briefly, the background measurements were recorded after adding 100 μl culture medium to the wells. Next, the cells were seeded at a density of 1 × 10^4 cell/well in a 16-well plate with electrodes for 18 h to allow the cells to grow to log phase. The cells were treated with different concentrations of peptide dissolved in cell culture medium and continuously monitored for up to 100 h. The cell sensor impedance was expressed as an arbitrary unit named the cell index. The cell index was recorded every 5 minutes using a RTCA analyser. To eliminate variation between the wells, the cell index values were normalised to the value at the beginning of the treatment.

[3] = biological target: T1, dengue NS2B-NS3pro (DENV2 serine protease, recombinant single chain NS2B (G4-T-G4) NS3pro) (Dengue virus type 2, UniProt P14340); assay: Dengue NS2B-NS3 protease (NS2B-NS3pro) assay; assay type: biochemical, Dengue virus serotype-2 (DENV2); details: 2 μM NS2B-NS3pro, 100 μM Boc-Gly-Arg-Arg-AMC, pH 8.5, 200 mM Tris-HCl, 30 min pre-incubation + 30 min with substrate, fluorescence ex 350/em 440 nm, triplicate, repeated twice, ± SD, read-out: IC50 (inhibitory concentration of 50% of enzyme activity)
T1 construct: 1394–1440 in DENV2 polyprotein; 1476–1660 in DENV2 polyprotein; made in house; host or cells: E. coli
T1 sequence (P14340 1476-1660): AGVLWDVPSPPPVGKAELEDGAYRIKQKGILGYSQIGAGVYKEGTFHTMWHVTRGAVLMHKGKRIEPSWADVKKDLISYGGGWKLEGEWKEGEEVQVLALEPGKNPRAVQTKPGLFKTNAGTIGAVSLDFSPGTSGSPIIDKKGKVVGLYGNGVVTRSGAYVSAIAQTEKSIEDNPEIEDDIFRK
T1 sequence (P14340 1394-1440): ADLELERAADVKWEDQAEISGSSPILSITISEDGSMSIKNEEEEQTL
Protocol: The NS2B-NS3pro assay was performed to examine whether the Ltc 1 peptide inhibits the DENV2 serine protease. Briefly, a single chain NS2B (G4-T-G4) NS3pro was produced as a recombinant protein in E. coli as previously described. The end point reaction mixture was performed in black 96-well plates, which contained 2 μM recombinant NS2B-NS3pro, 100 μM fluorogenic peptide substrate (Boc-Gly-Arg-Arg-AMC) and varying concentrations of the Ltc 1 peptide (0.1 to 40 μM) buffered at pH 8.5 with 200 mM Tris-HCl in a total volume of 200 μl. The reaction mixtures without peptide, substrate with the peptides, enzyme and different concentrations of the peptides were used as controls. […] Measurements were performed in triplicate using a Tecan Infinite M200 Pro fluorescence spectrophotometer (Tecan Group Ltd., Switzerland). […] The fluorescence values obtained with the no-inhibitor control (0.0 μM peptide) were set at 100%, and those in the presence of peptide were calculated as a percentage of the control using non-linear regression in GraphPad Prism (version 5.01) software. The IC50 was calculated from nonlinear regression fitting of the signal vs. concentration data points to the standard dose–response equation Y = Bottom + (Top - Bottom)/(1 + 10^^((X - LogIC50))). […] The inhibition percentage was calculated using the following formula: […]

[4] = test system: DENV2; assay: Dose-response assay, viral RNA by one-step qRT-PCR; assay type: cell-based, Dengue virus serotype-2 (DENV2); details: HepG2 infected with DENV2, MOI 2, peptide 0-80 μM added after infection, quadruplicate experiments, ± SD
Protocol: This assay was performed to evaluate the 50% effective concentration (EC50) of the Ltc 1 peptide against DENV2. HepG2 cells were grown in six-well microplates (1.5 × 10^6 cells/well) for 24 h in quadruplicate experiments. The cell culture media were removed and the cells were washed three times with PBS. Then, fresh medium containing the virus supernatant was added at MOI of 2, followed by incubation for 1 h with gentle shaking every 15 min. The viral residues were removed by washing with PBS, and serial dilutions of the Ltc 1 peptide (0, 2.5, 5, 10, 20, 40, 80 μM) were added. […] The cell supernatants were collected and stored at -80°C for viral load determination using viral RNA and were quantified using one step qReal time-PCR.
The DENV2 copy number was quantified in the culture supernatants using one-step quantitative real-time PCR. Known copies of the viral RNA were 10-fold serially diluted to generate a standard curve. The viral RNA was extracted using the QIAmp viral RNAmini kit (QIAGEN, Germany), and the qRT-PCR was performed using a SYBR Green Master Kit (Qiagen, Germany). Triplicate reactions were performed for each sample, and a no template control was included as a negative control. Absolute quantification was performed using an ABI7500 machine (Applied Biosystems, Foster City, CA). The results were analysed using Sequence Detection Software Version 1.3 (Applied Biosystems, Foster City, CA). The percentage of viral inhibition (%) was calculated as follows: 100 – (viral copy number of treated cells/viral copy number of untreated cells) × 100.

[5] = cited from earlier work
Excerpt: Natural antimicrobial peptides (AMPs) are produced in the majority of living organisms as protection against various pathogens, including viruses. […] Therefore, the objective of this study was to identify and characterise the inhibitory potential of the latarcin peptide (Ltc 1, […]) against dengue virus replication in human cells. Ltc 1 is one of approximately seven latarcin peptides, which are produced in the venom gland of Lachesana tarab ...

[6] = test system: Vero cells; assay: Cytotoxicity, Non-Radioactive Cell Proliferation assay; assay type: cell-based; details: Vero cells (method), 72 h
Protocol: The cytotoxicity of the Ltc 1 peptides was evaluated by determining the maximal non-toxic dose (MNTD) and the 50% cytotoxic concentration (CC50) of the cells using the Non-Radioactive Cell Proliferation assay (Promega, USA) according to the manufacturer’s instructions. […] Vero cells were seeded at 1×10^4 cells/well in triplicate under optimal conditions (37°C, 5% CO2 in a humidified incubator) in 96-well plates with blank controls (media only) and cell controls (cells only). After an overnight incubation, the cells were treated with increasing concentrations of Ltc 1 peptide (0, 4, 8, 16, 32, 64 and 120 μM) with DMEM medium supplemented with 2% FBS and the cell culture was analysed after 72 h. The percentage of cell viability was calculated as follows: […] (absorbance of treated cells/absorbance of untreated cells) × 100. The MNTD and CC50 values were calculated from the dose-response curves.

[7] = test system: dengue protease NS2B-NS3pro; details: compared to the other standard serine protease inhibitors; cited from earlier work
Excerpt: Previous studies reported various inhibitors against dengue protease, including standard serine protease inhibitors, substrate based inhibitors, and non-substrate based inhibitors.

Substance | induction of cell apoptosis [1] | effect on cell proliferation ([2]; 25 μM, 110 h, cell index similar to untreated control cells) | effect on cell proliferation ([2]; 50 μM, after 66 h of incubation, HepG2 cells) | maximal non-toxic dose (MNTD) ([2]; HepG2 cells, real-time cell index, concentrations 0-250 μM) [µM] | effect on cell proliferation ([2]; concentrations higher than 50 μM, all time-points) | IC50 ([3]; 37°C) [µM] | IC50 ([3]; 40°C (high fever-like)) [µM] | EC50 ([4]; 24 h) [µM] | EC50 ([4]; 48 h) [µM] | EC50 ([4]; 72 h) [µM] | haemolytic activity [5] | cell viability ([6]; 25 μM peptide) [%] | CC50 (50% cytotoxic concentration) ([6]; 0-120 μM peptide, DMEM 2% FBS, 37°C, triplicate, ± SD) | inhibitory effect against the dengue protease [7]
SMWSGMWRRKLKKLRNALKKKLKGE [Ltc 1] | induces cellular changes that lead to cell apoptosis | insignificant | significantly decreased | 25 | toxic to the cells | 12.7 ± 3.2 | 6.58 ± 4.1 | 8.3 ± 1.2 | 7.6 ± 2.7 | 6.8 ± 2.5 | moderate haemolytic activity | 80 | approximately 52.51 ± 3.6 μM | –
aprotinin | – | – | – | – | – | – | – | – | – | – | – | – | – | picomolar levels
